Read-outs that look alike come from different tables or passages of the source. No end group written: not given here.
Columns and labels:
ζ-opioid receptor = target: T1, ζ-opioid receptor (Homo sapiens, UniProt Q9NZT2); assay: Competition for binding of [3H][Met5]enkephalin (4.0 nM) in nuclear homogenates of HT-29 human colon tumors; set-up: from tissue; host or cells: HT-29 human colon tumor xenografts grown in athymic nude mice; nuclear (P1) and other subcellular fractions
T1 sequence (Q9NZT2 1-677): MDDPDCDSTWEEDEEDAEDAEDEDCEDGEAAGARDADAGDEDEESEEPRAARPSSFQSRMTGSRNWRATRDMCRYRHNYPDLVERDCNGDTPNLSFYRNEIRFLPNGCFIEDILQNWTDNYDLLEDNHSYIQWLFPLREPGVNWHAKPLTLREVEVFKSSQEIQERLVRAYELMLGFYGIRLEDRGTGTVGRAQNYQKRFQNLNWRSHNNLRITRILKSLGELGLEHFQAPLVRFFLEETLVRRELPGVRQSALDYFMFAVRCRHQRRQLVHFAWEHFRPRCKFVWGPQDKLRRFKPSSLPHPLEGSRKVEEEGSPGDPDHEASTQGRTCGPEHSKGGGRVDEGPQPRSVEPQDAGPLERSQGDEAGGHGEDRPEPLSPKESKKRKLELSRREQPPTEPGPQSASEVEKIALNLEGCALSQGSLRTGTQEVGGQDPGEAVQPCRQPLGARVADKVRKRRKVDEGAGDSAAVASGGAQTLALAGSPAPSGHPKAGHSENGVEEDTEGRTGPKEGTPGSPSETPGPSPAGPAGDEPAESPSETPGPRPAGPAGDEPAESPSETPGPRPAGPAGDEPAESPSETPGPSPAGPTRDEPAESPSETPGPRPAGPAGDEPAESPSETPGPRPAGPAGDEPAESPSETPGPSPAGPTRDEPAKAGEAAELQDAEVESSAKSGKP

COLO 205 cells = assay: Growth assay (cell counts) of COLO 205 human colon cancer cells; type: cell-based
Procedure: (§1) HT-29, WiDr, and COLO 205 cell lines were obtained from the American Type Culture Collection (Rockville, Md.). HT-29 cells were grown in McCoy's 5A media (modified), WiDr cells in Minimum Essential Media, and COLO 205 cells in RPMI 1640 media; all media contained 10% fetal calf serum, 2 mM […], 1.2% sodium bicarbonate and antibiotics (11 Units/ml penicillin, 10 μg/ml streptomycin, 10 μg/ml neomycin) in a humidified atmosphere of 7% CO2/93% air at 37° C. In some examples, cultures of HT-29 cells were maintained in McCoy's 5A media without fetal calf serum.
(§2) Cells were seeded at equivalent amounts into 75 cm^2 flasks or into 9.6 cm^2 wells (6-well plates, Falcon) and were counted 24 hr later to determine plating efficiency. Drugs or sterile water were added beginning 24 hr after seeding (=0 hours) and both media and drugs were changed daily. All drugs were prepared in sterile water and dilutions represent final concentrations of the compounds. At appropriate times, cells were harvested with 0.05% trypsin/0.53 mM EDTA, centrifuged, and counted with a hemacytometer at 200×. Cell viability was determined by trypan blue staining. At least 2 aliquots/flask or well were counted and 2 flasks or wells/time point/treatment group were sampled.
(§3) To examine the ubiquity of opioid activity with respect to colon cancer, two other colon cancer cell lines were investigated: COLO 205 and WiDr.

HT-29 cells = assay: Growth assay (cell counts) of HT-29 human colon cancer cells in culture; type: cell-based; conditions: 48 hr
Procedure: In some examples, cultures of HT-29 cells were maintained in McCoy's 5A media without fetal calf serum.
as §2

WiDr cells = assay: Growth assay (cell counts) of WiDr human colon cancer cells; type: cell-based
Procedure: as §1, §2, §3

[1] = test system: HT-29 human colon cancer cells; assay: HT-29 human colon cancer xenografts in nude mice treated with OGF and/or naloxone

`CC[C@]12CCN(CC3CC3)[C@H](C(=O)c3ccc(O)cc31)[C@@H]2C` [EKC, ethylketocyclazocine] was tested, and the IC50 (ζ-opioid receptor) was greater than 10000 µM, the Ki (ζ-opioid receptor) was greater than 10000 µM and the “ability to compete in displacing [3H]-[Met5]-enkephalin binding” value (shortened to “ability to compete in displacing”) (ζ-opioid receptor) was “not competitive”.

In the case of `CSCC[C@H](NC(=O)[C@H](Cc1ccc(OS(=O)(=O)O)cc1)NC(=O)[C@@H](N)CC(=O)O)C(=O)NCC(=O)N[C@@H](Cc1c[nH]c2ccccc12)C(=O)N[C@@H](CCSC)C(=O)N[C@@H](CC(=O)O)C(=O)N[C@@H](Cc1ccccc1)C(N)=O` [CCK-8, cholecystokinin octapeptide], the “ability to compete in displacing” value (ζ-opioid receptor) is reported as “exhibit ability to compete”.

`C[C@H](N)C(=O)NCC(=O)N[C@H]1CSSC[C@@H](C(=O)O)NC(=O)[C@H](CO)NC(=O)[C@H]([C@@H](C)O)NC(=O)[C@H](Cc2ccccc2)NC(=O)[C@H]([C@@H](C)O)NC(=O)[C@H](CCCCN)NC(=O)[C@H](Cc2c[nH]c3ccccc23)NC(=O)[C@H](Cc2ccccc2)NC(=O)[C@H](Cc2ccccc2)NC(=O)[C@H](CC(N)=O)NC(=O)[C@H](CCCCN)NC1=O` [Somatostatin] gave an IC50 (ζ-opioid receptor) greater than 10 µM and a Ki (ζ-opioid receptor) greater than 10 µM.

“YGGFMRGL [[Met^5]enkephalin-Arg^6-Gly^7-Leu^8, [Met^5,Arg^6,Gly^7,Leu^8]-enkephalin]” was tested, and the IC50 (ζ-opioid receptor) was 0.0375 ± 0.0075 µM and the Ki (ζ-opioid receptor) was 0.0289 ± 0.0058 µM.

For `CC[C@H](C)[C@H](NC(=O)[C@H](C)NC(=O)[C@H](CC(N)=O)NC(=O)[C@H](CCCCN)NC(=O)[C@H](Cc1ccccc1)NC(=O)[C@H](CC(C)C)NC(=O)[C@@H](NC(=O)[C@@H](NC(=O)[C@H](CC(C)C)NC(=O)[C@@H]1CCCN1C(=O)[C@@H](NC(=O)[C@H](CCC(N)=O)NC(=O)[C@H](CO)NC(=O)[C@H](CCCCN)NC(=O)[C@H](CCC(=O)O)NC(=O)[C@H](CO)NC(=O)[C@@H](NC(=O)[C@H](CCSC)NC(=O)[C@H](Cc1ccccc1)NC(=O)CNC(=O)CNC(=O)[C@@H](N)Cc1ccc(O)cc1)[C@@H](C)O)[C@@H](C)O)C(C)C)[C@@H](C)O)C(=O)N[C@H](C(=O)N[C@@H](CCCCN)C(=O)N[C@@H](CC(N)=O)C(=O)N[C@@H](C)C(=O)N[C@@H](Cc1ccc(O)cc1)C(=O)N[C@@H](CCCCN)C(=O)N[C@@H](CCCCN)C(=O)NCC(=O)N[C@@H](CCC(=O)O)C(=O)O)[C@@H](C)CC` [β-Endorphin, β-endorphin], the “less potent than [Met5]-enkephalin in displacing radiolabeled [Met5]-enkephalin binding” value (ζ-opioid receptor) was 4.3 fold.

SKF-10,047 was tested, and the “ability to compete in displacing” value (ζ-opioid receptor) was “not competitive”, the IC50 (ζ-opioid receptor; read-out: IC50) was 0.795 ± 0.005 µM and the Ki (ζ-opioid receptor; read-out: KI) was 0.612 ± 0.004 µM.

In the case of `C=CCN1CC[C@]23c4c5ccc(O)c4O[C@H]2C(=O)CC[C@@]3(O)[C@H]1C5` [naloxone], the “influence on growth, alone” value (COLO 205 cells; 10^−6 M) is reported as “no influence on growth”, the “effect of naloxone on suppressive effects of [Met5]-enkephalin on growth” value (COLO 205 cells; 10^−6 M each) is reported as “eliminated” and the “effect of concomitant naloxone on [Met5]-enkephalin inhibition of cell number” value (HT-29 cells; 10^−6 M each) is reported as “blocked the inhibitory effects”. For the same molecule, the “effect on cell growth, alone” value (HT-29 cells; 10^−6 M) was “no effect on cell growth”, the “influence on growth, alone” value (WiDr cells; 10^−6 M) was “no influence on growth” and the “effect of naloxone on suppressive effects of [Met5]-enkephalin on growth” value (WiDr cells; 10^−6 M each) was “eliminated”. The “latencies of palpable, visible, or measurable tumors or incidence of cancer versus control mice” value ([1]; 5 mg/kg OGF with 10 mg/kg naloxone, or 10 mg/kg naloxone alone) was “No differences”, the “Latency for measurable tumor appearance, days, range” value ([1]; 10 mg/kg Nal daily) was “(10-16) days” and the “Latency for palpable tumor” value ([1]; 10 mg/kg Nal daily) was 9.3 ± 1.4 days. For the same molecule, the “Latency for visible tumor” value ([1]; 10 mg/kg Nal daily) was 10.3 ± 1.4 days, the “No. of mice with tumors 21 days after inoculation” value ([1]; 10 mg/kg Nal daily) was 4/5 and the “No. of mice with tumors 50 days after inoculation” value ([1]; 10 mg/kg Nal daily) was 4/5. For the same molecule, the tumor volume ([1]; 50 days after inoculation, 10 mg/kg naloxone alone) was 1,494±517 mm^3.

`CSCC[C@H](NC(=O)[C@H](Cc1c[nH]c2ccccc12)NC(=O)CNC(=O)[C@H](Cc1ccc(O)cc1)NC(=O)[C@H](C)NC(=O)[C@H](CCC(=O)O)NC(=O)[C@H](CCC(=O)O)NC(=O)[C@H](CCC(=O)O)NC(=O)[C@H](CCC(=O)O)NC(=O)[C@H](CCC(=O)O)NC(=O)[C@H](CC(C)C)NC(=O)[C@H](Cc1c[nH]c2ccccc12)NC(=O)[C@@H]1CCCN1C(=O)CNC(=O)[C@@H]1CCC(=O)N1)C(=O)N[C@@H](CC(=O)O)C(=O)N[C@@H](Cc1ccccc1)C(N)=O` [Gastrin] was tested, and the IC50 (ζ-opioid receptor) was 0.0775 ± 0.0075 µM and the Ki (ζ-opioid receptor) was 0.0596 ± 0.0058 µM.

In the case of dynorphin A 1-8 [Dynorphin A-(1-8)], the “ability to compete in displacing” value (ζ-opioid receptor) is reported as “not competitive”.
